We go through 3 substances from patent US20020147326A1, “Hexameric fusion proteins and uses therefor” (SmithKline Beecham Corporation, priority 1996, published 2002).

The test system of assay [1] is murine T-cell hybridoma cell lines expressing human CD28 (PCD28.1.s2.1, DCL27CD28wt.s2). Put plainly: IL-2 production by CD28 T-cell hybridomas (CTLL-2 bioassay). In kind it is cell-based. The settings on record: for IL-2 response: cross-linked with GAH antibody, no CD3 antibody; for level of IL-2 response at near saturation: soluble protein 1 ug/ml (FIG. 20C). The text has this: The CD80- and CD86-Igαtp proteins were compared to the corresponding CD80 and CD86-Ig proteins to determine their ability to stimulate cells expressing human CD28 using two murine T-cell hybridoma cell lines expressing human CD28, PCD28.1.s2.1 and DCL27CD28wt.s2. The PCD28.1.s2.1 cell line was described in Example 1, part 3. The DCL27CD28wt.s2 cell line was created by transfection of the DC27 cell line [F. Pages et al., Nature, 369:327-329 (1994); F. Pages et al., J. Biol. Chem., 271(16):9403-9409 (1996)] with the same CD28 expression vector used for the PCD28.1.s2.1 cells [D. Couez et al., Molecular Immunology, 31:47-57 (1994)]. These cell lines were examined for their ability to produce IL-2 in response to activation with CD80- and CD86-Ig in comparison with the corresponding Igαtp fusion proteins. 96-well plates were coated with or without a CD3 antibody together with the CD80 and CD86 fusion proteins. This was accomplished by first incubating the plates with a previously determined suboptimal concentration of hamster […] CD3 antibody (MAb 145-2C11, Boerhinger-Mannheim Biochemicals) for two hours at room temperature (RT) or with just buffer alone, washing the plates with PBS, adding goat anti-human Ig heavy chain (GAH-IgHc, Sigma Chemical Co.) for an additional two hours at RT, washing again and coating with different concentrations of the CD80 or CD86 fusion protein for 16-18 hours at 4° C., washing again, and finally blocking for 30 min. with 0.2% BSA-PBS. T cells (1×10^5/well) were added in 150 μl medium into duplicate wells. For comparison, the soluble fusion proteins and the 248.23.2 CD28 MAb (IgM) [A. Morretta, University of Genova, Italy] were added to non-coated wells. T cells were incubated in the wells for 24 hours at 37° C., and supernatants were collected and evaluated for IL-2 levels in a standard CTLL-2 bioassay [S. M. Gillis et al., J. Immunol., 120:2027 (1978)]. Briefly, 1×10^4 IL-2 dependent CTLL-2 cells (ATCC)/well in 75 μl medium were added to an equal volume of test supernatant and incubated for 24 hours at 37° C. The cells were pulsed with 10 μl of 5 mg/ml MTT (Sigma Chemical Co.) for 4 hours, and lysed with […] 10% SDS/0.01N HCl solution for 14-16 hours. OD570 readings were converted into ng/ml of IL-2 based on a standard curve generated by treating cells with known concentrations of IL-2.
IL-2 promoter activity and IL-2 levels were measured similarly to that described in parts A and B above, except that proliferation of the reader CTLL-2 cells was measured by ^3H-thymidine incorporation.

Assay [2] addresses T1, CD28-Ig (Homo sapiens, UniProt P10747). Put plainly: ELISA binding of biotinylated fusion proteins to immobilized CD28-Ig. Details: native leader and extracellular domain peptide of CD28 and CD80 were grafted onto a human IgG1 heavy chain Fc region; human IgG1 Fc (hinge/CH2/CH3); made in house; host or cells: CHO cells. Conditions: for binding to immobilized CD28-Ig: biotinylated protein, ELISA. As for the experimental part:
For this assay format, the CD80-Igαtp protein was biotinylated for simplicity of assay and for ease of detection since the CD28 protein absorbed to the plate wells was also a human Ig fusion construct. Biotinylation was carried out essentially as described in Avidin-Biotin Chemistry: A handbook, M. D. Savage et al., Pierce Chemical Company (1992). […] All steps of the assay after coating were carried out at room temperature.
The wells of 96 well microtiter plates (Immunlon 4, Dynatech Laboratories) were coated with CD28-Ig (1, 2, or4 μg/ml) in 100 μl/well of 0.1 M sodium bicarbonate, pH 9.4 and incubated overnite @4° C. The wells were washed with PBS (phosphate buffered saline) and blocked with 0.5% gelatin in PBS for 1 hour. Following an additional PBS wash, biotinylated CD80-Igαtp was serially diluted in PBS containing 1 mg/ml BSA, 0.05% Tween directly in the wells in a final volume of 0.1 ml and incubated for 1 hour. The wells were washed with PBS and bound CD80-Igαtp protein was measured by the addition of 0.1 ml of strepavidin-HRP (streptavidin conjugated with horseradish peroxidase (Southern Biotech)) at a 1:2000 dilution for 1 hour, followed by washing and color development with 100 μl ABTS substrate (Kierkegaard and Perry Laboratories Inc., Maryland) and measurement of absorbance at 405 nm. In some cases the color reactions were arrested by addition of 100 μl of 1% SDS prior to measurement of absorbance. In this figure, “CD28-Fc”, “CTLA4-Fc”, and “B7-FcA” denote CD28-Ig, CTLA4-Ig, and CD80-Igαtp, respectively.
Background: In an ELISA, binding on a coated surface is turned into a signal by an enzyme label.

The target in assay [3] is T1, CD28-Ig. Put plainly: Surface plasmon resonance (BIAcore) on immobilized CD28-Ig. In kind it is binding. Details: native leader and extracellular domain peptide of CD28 and CD80 were grafted onto a human IgG1 heavy chain Fc region; human IgG1 Fc (hinge/CH2/CH3); made in house; host or cells: CHO cells. The settings on record: for dissociation from CD28-Ig coated surface: BIAcore, 10 ul/min. The method, then: Covalent attachment was achieved by firstly activating the surface with a 1:1 mixture of 0.1 M solution of N-hydroxysuccinamide and 0.1 M 1-ethyl-3-(3-dimethylaminopropyl)carbodiimide. A solution of CD28-Ig 50 ug/ml in 0.01 M sodium acetate pH 4.7 was then passed over the surface. Unreacted N-hydroxysuccinamide esters were then deactivated with 1 M ethanolamine pH 8.5. The surface was equilibrated with running buffer composed of 20 mM HEPES 150 mM NaCl, pH 7.2, 3 mM EDTA and 0.005% Tween 20.
For comparison of CD80-Igαtp and CD86-Igαtp binding with immobilized CD28-Ig, solutions of CD80-Igαtp and CD86-Igαtp (5 ug/ml) were prepared in running buffer described above. Sample solutions were injected (60 ul) at 10 ul/min. Between samples, the surface was regenerated with a 30 ul injection of Gentle elution buffer (Pierce Chemicals, Rockville, Ill.).
Background: Surface plasmon resonance follows binding to a sensor surface in real time, without labels.

The mark [4] stands for this setting: added directly to PC28.1.s2.1 cells in solution, CTLL-2 3H-thymidine incorporation (FIG. 20B).
Setting [5] is: soluble protein, absence of CD3 crosslinking.

Regarding “CD80-Ig: CD80 leader and extracellular domain grafted onto human IgG1 heavy chain Fc region; monomeric Ig fusion (Ig homodimer) [reference compound]”, the figures for the IL-2 production result in assay [1] (setting [4]) and in assay [1] (setting [5]) were “no stimulation” and “no activity”, respectively. Also, in assay [1], the IL-2 response entry was “did not give a response”. Further, the “binding to immobilized CD28-Ig” value in the assay with CD28-Ig [2] is “little binding and only at much higher concentrations”. In addition, the “dissociation from CD28-Ig coated surface” value with CD28-Ig [3] is “dissociates very rapidly”.
Take “CD80-Igαtp: CD80 leader and extracellular domain linked to human IgG1 hinge/CH2/CH3 and terminating in human IgA1 tailpiece (αtp)”: the values for the IL-2 production result in assay [1] (setting [4]) and in assay [1] (setting [5]) were “dose dependent stimulation” and “induced IL-2 production”, respectively. For the same substance, the IL-2 response entry in assay [1] is listed as “increased the IL-2 response”. The “level of IL-2 response at near saturation” value in assay [1] is “comparable to that observed for stimulation through cross-linking of CD3 with immobilized CD3 antibody”. Also, in the assay with CD28-Ig [2] (biotinylated CD80-Igαtp at 50 μg/ml), the “saturation of OD405” value is reported as “about 50%”. Also, in the assay with CD28-Ig [2], the “binding to immobilized CD28-Ig” value is given as “concentration dependent binding”. The “dissociation from CD28-Ig coated surface” value in the assay with CD28-Ig [3] was “about three orders of magnitude slower”.
On to “CD86-Igαtp: CD86 leader and extracellular domain linked to human IgG1 Fc and terminating in human IgA1 tailpiece (αtp)”, for which the IL-2 production result in assay [1] (setting [4]) is “dose dependent stimulation”. For the same substance, in assay [1], the IL-2 response result was “increased the IL-2 response” and the “level of IL-2 response at near saturation” value is “comparable to that observed for stimulation through cross-linking of CD3 with immobilized CD3 antibody”. In assay [1] (setting [5]), the IL-2 production entry is given as “induced IL-2 production”. Moreover, the “binding to immobilized CD28-Ig” value in the assay with CD28-Ig [2] is recorded as “good binding”. For the same substance, the “off-rate compared with CD80-Igαtp” value with CD28-Ig [3] (5 ug/ml) is “higher than that for the CD80 construct”. Further, the “dissociation from CD28-Ig coated surface” value in the assay with CD28-Ig [3] is “dissociates slowly”.
